Laboratory results from patent US20080044491A1, “METAL-CONTAINING FORMULATIONS AND METHODS OF USE” (priority 2006, published 2008).
Values joined by “and” are separate entries in the source; they are usually repeats but may differ in a detail not shown here. Equal values may be shown once.

Tests used:
Staphylococcus aureus = test: MIC assay (microdilution); format: cell-based
[1] = system: Staphylococcus epidermidis; test: MIC assay (microdilution); format: cell-based
Streptococcus pyogenes = test: MIC assay (microdilution); format: cell-based; conditions: lactate solutions, nanocrystalline silver = range for 12 samples
Streptococcus pneumoniae = test: MIC assay (microdilution); format: cell-based; conditions: lactate solutions, nanocrystalline silver = range for 12 samples
Pseudomonas aeruginosa = test: MIC assay (microdilution); format: cell-based
Klebsiella pneumoniae = test: MIC assay (microdilution); format: cell-based; conditions: K. pneumoniae NP403 (listed twice)
Serratia marcescens = test: MIC assay (microdilution); format: cell-based
Escherichia coli = test: MIC assay (microdilution); format: cell-based
Shigella flexneri = test: MIC assay (microdilution); format: cell-based; conditions: Shigella flexneri ATCC 12022
[2] = system: Mycobacterium tuberculosis H37Ra (ATCC 25177); format: cell-based
Staph. aureus = test: Minimal bactericidal concentration (MBC) assay; format: cell-based, Staphylococcus aureus
Procedure: (§1) Minimal bactericidal concentration (MBC) assay—Overnight-grown MIC plates, prepared as described in Example 16, were evaluated to determine the MIC. Culture was then sampled from wells at and near the MIC using sterile inoculating loops, and transferred to fresh MHA plates to determine if viable bacteria remained. […] The MBC was determined as the well in the MIC plate which contained the lowest concentration of silver yielding no bacterial growth on the MHA plate.

Ps. aeruginosa = test: Minimal bactericidal concentration (MBC) assay; format: cell-based, Pseudomonas aeruginosa; conditions: Ps. aeruginosa 27317 (ATCC type strain)
Procedure: as §1

K. pneumoniae = test: Minimal bactericidal concentration (MBC) assay; format: cell-based, Klebsiella pneumoniae; conditions: K. pneumoniae NP403 (listed twice)
Procedure: as §1

Ser. marcescens = test: Minimal bactericidal concentration (MBC) assay; format: cell-based, Serratia marcescens
Procedure: as §1

E. coli = test: Minimal bactericidal concentration (MBC) assay; format: cell-based, Escherichia coli
Procedure: as §1

Staph epidermidis = test: Minimal bactericidal concentration (MBC) assay; format: cell-based, Staphylococcus epidermidis; conditions: Staph epidermidis 12228 (ATCC type strain)
Procedure: as §1

[3] = Staph. aureus 6538 (ATCC type strain)
[4] = Staph. aureus 700699 (ATCC type strain)
[5] = Ser. marcescens NP402 (listed twice)
[6] = Ser. marcescens NP408 (listed twice)
[7] = E. coli 8739 (ATCC type strain)
[8] = E. coli 43745 (ATCC type strain)

Q: With O=[N+]([O-])[O-].[Ag+] [AgNO3, silver nitrate] as the compound, how does the MIC (Staphylococcus aureus; S. aureus (ATCC), lactate solutions, nanocrystalline silver = range for 12 samples) read?
A: 11 µg/mL

Q: What about the MIC (Staphylococcus aureus; S. aureus (clin.), lactate solutions, nanocrystalline silver = range for 12 samples) of the same compound?
A: 5 µg/mL

Q: And the MIC (Staphylococcus aureus; [3])?
A: 6 parts silver per million

Q: And the MIC (Staphylococcus aureus; [4])?
A: 3 parts silver per million

Q: And the MIC ([1]; S. epiderm (ATCC), lactate solutions, nanocrystalline silver = range for 12 samples)?
A: 3 µg/mL

Q: And the MIC ([1]; Staph epidermidis 12228 (ATCC type strain))?
A: 3 parts silver per million

Q: What about the MIC (Streptococcus pyogenes; S. pyog (clin. 303)) of the same compound?
A: 3 µg/mL

Q: What about the MIC (Streptococcus pyogenes; S. pyog (clin. 304)) of the same compound?
A: 5 µg/mL

Q: What about the MIC (Streptococcus pneumoniae; S. pneumo (clin 314)) of the same compound?
A: 11 µg/mL

Q: What about the MIC (Streptococcus pneumoniae; S. pneumo (clin 315)) of the same compound?
A: 21 µg/mL

Q: And the MIC (Pseudomonas aeruginosa; P. aerug (ATCC), lactate solutions, nanocrystalline silver = range for 12 samples)?
A: 3 µg/mL

Q: And the MIC (Pseudomonas aeruginosa; P. aerug. (clin.), lactate solutions, nanocrystalline silver = range for 12 samples)?
A: 3 µg/mL

Q: And the MIC (Pseudomonas aeruginosa; P. aeruginosa isolate NP212, formulation type Lactate)?
A: 2 ppm

Q: And the MIC (Pseudomonas aeruginosa; P. aeruginosa isolate NP212, formulation type Water/Lecithin)?
A: 3 ppm

Q: And the MIC (Pseudomonas aeruginosa; P. aeruginosa isolate NP212, formulation type Water/PVA)?
A: 3 ppm

Q: And the MIC (Pseudomonas aeruginosa; Ps. aeruginosa 9027 (ATCC type strain))?
A: 1 parts silver per million

Q: What about the MIC (Pseudomonas aeruginosa; Ps. aeruginosa 27317 (ATCC type strain)) of the same compound?
A: 2 parts silver per million

Q: And the MIC (Klebsiella pneumoniae)?
A: 6 parts silver per million

Q: And the MIC (Serratia marcescens; [5])?
A: 6 parts silver per million

Q: What about the MIC (Serratia marcescens; [6]) of the same compound?
A: 6 parts silver per million and 11 parts silver per million

Q: What about the MIC (Escherichia coli; [7]) of the same compound?
A: 0.4 parts silver per million

Q: What about the MIC (Escherichia coli; [8]) of the same compound?
A: 1 parts silver per million

Q: And the MIC (Escherichia coli; E. coli (ATCC), lactate solutions, nanocrystalline silver = range for 12 samples)?
A: 3 µg/mL

Q: What about the MIC (Shigella flexneri; formulation type Lactate) of the same compound?
A: 2 ppm

Q: And the MIC (Shigella flexneri; formulation type Water/Lecithin)?
A: 2 ppm

Q: And the MIC (Shigella flexneri; formulation type Water/PVA)?
A: 1 ppm

Q: What about the “minimum inhibitory concentration (MIC)” value [2] of the same compound?
A: 2.5 μg/ml silver

Q: What about the MBC (Staph. aureus; [3]) of the same compound?
A: 6 parts silver per million

Q: And the MBC (Staph. aureus; [4])?
A: 6 parts silver per million

Q: And the MBC (Ps. aeruginosa)?
A: 3 parts silver per million

Q: What about the MBC (K. pneumoniae) of the same compound?
A: 6 parts silver per million and 3 parts silver per million

Q: What about the MBC (Ser. marcescens; [5]) of the same compound?
A: 6 parts silver per million

Q: What about the MBC (Ser. marcescens; [6]) of the same compound?
A: 6 parts silver per million and 11 parts silver per million

Q: And the MBC (E. coli; [7])?
A: 0.4 parts silver per million

Q: What about the MBC (E. coli; [8]) of the same compound?
A: 0.4 parts silver per million

Q: And the MBC (Staph epidermidis)?
A: 3 parts silver per million
